The term IC50 denotes the midpoint of a concentration-inhibition curve. A higher IC50 goes with a need for much substance.

Sequence of activated ERK2 (P28482 whole entry): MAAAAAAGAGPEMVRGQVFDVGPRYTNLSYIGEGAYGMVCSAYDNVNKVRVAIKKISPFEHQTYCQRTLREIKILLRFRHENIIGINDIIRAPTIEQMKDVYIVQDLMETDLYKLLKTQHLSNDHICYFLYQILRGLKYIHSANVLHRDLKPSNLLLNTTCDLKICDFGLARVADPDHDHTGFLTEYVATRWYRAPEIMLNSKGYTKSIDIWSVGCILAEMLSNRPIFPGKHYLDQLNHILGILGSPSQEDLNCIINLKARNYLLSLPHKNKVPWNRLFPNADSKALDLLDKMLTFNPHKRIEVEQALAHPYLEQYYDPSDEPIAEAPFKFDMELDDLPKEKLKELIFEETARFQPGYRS

In this experiment the target is activated ERK2 (Homo sapiens (Human), UniProt P28482). Kind of experiment: Activated ERK2 kinase assay, ERK2 New conditions (AlphaScreen, ERKtide phosphorylation). It is filed as biochemical. The following applies: 0.25 nM ERK2, 200 nM ERKtide peptide, 35 μM ATP, 30 min preincubation. In a few lines:
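Read-out is AlphaScreen with anti-phospho-EGFR (Thr669) antibody after EDTA quench and overnight dark incubation. Reaction: 0.25 nM ERK2, 30 min compound preincubation, then 200 nM ERKtide plus 35 µM ATP for 2–3 h at ambient temperature, pH 7.5. IC50 by four-parameter fit.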
Turning to `Cn1cc(-c2cnc(N)c(-c3ccc(C(=O)N[C@H](CO)c4cccc(F)c4)c(F)c3)n2)cn1` [Example 280, (S)-4-(3-amino-6-(1-methyl-1H-pyrazol-4-yl)pyrazin-2-yl)-2-fluoro-N-(1-(3-fluorophenyl)-2-hydroxyethyl) benzamide], 1.66 nM corresponded to half-maximal inhibition (IC50).

For the compound `CS(=O)(=O)c1cccc([C@@H](CO)NC(=O)c2ccc(-c3nc(C4CC4)cnc3N)cc2F)c1` [Example 281, (S)-4-(3-amino-6-cyclo-propylpyrazin-2-yl)-2-fluoro-N-(2-hydroxy-1-(3-(methylsulfonyl)phenyl)ethyl) benzamide], the IC50 worked out at 1.79 nM.

Take `Cc1nn(C)cc1-c1cnc(N)c(-c2ccc(C(=O)N[C@H](CO)c3cccc(F)c3)c(F)c2)c1` [Example 282, (S)-4-(2-amino-5-(1,3-dimethyl-1H-pyrazol-4-yl)pyridin-3-yl)-2-fluoro-N-(1-(3-fluorophenyl)-2-hydroxyethyl) benzamide]: the 50% inhibitory concentration (IC50) is 1.2 nM.

On to `Cc1nn(C)cc1-c1cnc(N)c(-c2ccc(C(=O)N[C@H](CO)c3cccc(S(C)(=O)=O)c3)c(F)c2)c1` [Example 284, (S)-4-(2-amino-5-(1,3-dimethyl-1H-pyrazol-4-yl)pyridin-3-yl)-2-fluoro-N-(2-hydroxy-1-(3-(methylsulfonyl)phenyl)ethyl) benzamide], for which the IC50 stood at 0.296 nM. This IC50 lies about 4.1-fold lower than the previous one.

For `CS(=O)(=O)c1cc(F)cc(CNC(=O)c2ccc(-c3nc(C4CC4)cnc3N)cc2F)c1` [Example 286, 4-(3-amino-6-cyclo-propylpyrazin-2-yl)-2-fluoro-N-(3-fluoro-5-(methylsulfonyl)benzyl)benzamide], the IC50 is 3.9 nM. This IC50 lies about 13-fold higher than the previous one.

Take `C[C@@H](NC(=O)c1ccc(-c2nc(C3CC3)cnc2N)cc1F)c1cc(F)cc(S(C)(=O)=O)c1` [Example 287, (R)-4-(3-amino-6-cyclo-propylpyrazin-2-yl)-2-fluoro-N-(1-(3-fluoro-5-(methylsulfonyl)phenyl)ethyl) benzamide]: inhibition was half-maximal at 0.794 nM (IC50).

Regarding `C[C@@H](NC(=O)c1ccc(-c2cc(C3CC3)cnc2N)cc1F)c1cc(F)cc(S(C)(=O)=O)c1` [Example 288, (R)-4-(2-amino-5-cyclo-propylpyridin-3-yl)-2-fluoro-N-(1-(3-fluoro-5-(methylsulfonyl)phenyl)ethyl) benzamide], it took 2.03 nM to reach half-maximal inhibition (IC50). This IC50 lies about 2.6-fold higher than the previous one.

In the case of `Nc1ncc(-c2cn[nH]c2)cc1-c1ccc(C(=O)N[C@H](CO)c2ccccc2)c(F)c1` [Example 290, (S)-4-(2-amino-5-(1H-pyrazol-4-yl)pyridin-3-yl)-2-fluoro-N-(2-hydroxy-1-phenylethyl) benzamide], the midpoint of inhibition, the IC50, lay at 1.74 nM. This IC50 and that of the compound before are within 1.5-fold of each other.

In turn, `CC(C)n1cc(-c2cnc(N)c(-c3ccc(C(=O)N[C@H](CO)c4cccc(S(C)(=O)=O)c4)c(F)c3)c2)cn1` [Example 291, (S)-4-(2-amino-5-(1-isopropyl-1H-pyrazol-4-yl)pyridin-3-yl)-2-fluoro-N-(2-hydroxy-1-(3-(methylsulfonyl)phenyl)ethyl) benzamide] came in with an IC50 of 1.48 nM.

With `CC(C)n1cc(-c2cnc(N)c(-c3ccc(C(=O)N[C@H](CO)c4cccc(F)c4)c(F)c3)c2)cn1` [Example 292, (S)-4-(2-amino-5-(1-isopropyl-1H-pyrazol-4-yl)pyridin-3-yl)-2-fluoro-N-(1-(3-fluorophenyl)-2-hydroxyethyl) benzamide], the half-inhibitory concentration (IC50) turned out to be 2.82 nM.

`Cc1c(-c2cnc(N)c(-c3ccc(C(=O)N[C@H](CO)c4cccc(F)c4)c(F)c3)c2)cnn1C` [Example 295, (S)-4-(2-amino-5-(1,5-dimethyl-1H-pyrazol-4-yl)pyridin-3-yl)-2-fluoro-N-(1-(3-fluorophenyl)-2-hydroxyethyl) benzamide] displayed an IC50 of 0.595 nM.

Compound `CCn1cc(-c2cnc(N)c(-c3ccc(C(=O)N[C@H](CO)c4cccc(S(C)(=O)=O)c4)c(F)c3)c2)cn1` [Example 296, (S)-4-(2-amino-5-(1-ethyl-1H-pyrazol-4-yl)pyridin-3-yl)-2-fluoro-N-(2-hydroxy-1-(3-(methylsulfonyl)phenyl)ethyl) benzamide] had a concentration for half-maximal inhibition (IC50) of 1.08 nM.

`CCn1cc(-c2cnc(N)c(-c3ccc(C(=O)N[C@H](CO)c4cccc(F)c4)c(F)c3)c2)cn1` [Example 298, (S)-4-(2-amino-5-(1-ethyl-1H-pyrazol-4-yl)pyridin-3-yl)-2-fluoro-N-(1-(3-fluorophenyl)-2-hydroxyethyl) benzamide] displayed an IC50 of 1.95 nM.

The compound `CCn1cc(-c2cnc(N)c(-c3ccc(C(=O)N[C@H](C)c4cccc(S(C)(=O)=O)c4)c(F)c3)c2)cn1` [Example 299, (R)-4-(2-amino-5-(1-ethyl-1H-pyrazol-4-yl)pyridin-3-yl)-2-fluoro-N-(1-(3-(methylsulfonyl)phenyl)ethyl) benzamide] had an IC50 of 3.57 nM.

`C[C@@H](NC(=O)c1ccc(-c2cc(-c3cnnn3C)cnc2N)cc1F)c1cccc(Cl)c1` [Example 303, (R)-4-(2-amino-5-(1-methyl-1H-1,2,3-triazol-5-yl)pyridin-3-yl)-N-(1-(3-chlorophenyl)ethyl)-2-fluorobenzamide] had an IC50 of 0.221 nM. This IC50 is about 16-fold lower than that of the compound before.

Consider `Cn1nncc1-c1cnc(N)c(-c2ccc(C(=O)N[C@H](CO)c3ccccc3)c(F)c2)c1` [Example 304, (S)-4-(2-amino-5-(1-methyl-1H-1,2,3-triazol-5-yl)pyridin-3-yl)-2-fluoro-N-(2-hydroxy-1-phenylethyl) benzamide], for which the half-inhibitory concentration (IC50) was determined as 2.5 nM.

Regarding `Cn1nncc1-c1cnc(N)c(-c2ccc(C(=O)N[C@H](CO)c3cccc(F)c3)c(F)c2)c1` [Example 305, (S)-4-(2-amino-5-(1-methyl-1H-1,2,3-triazol-5-yl)pyridin-3-yl)-2-fluoro-N-(1-(3-fluorophenyl)-2-hydroxyethyl) benzamide], the half-inhibitory concentration (IC50) worked out at 1.91 nM.

For the compound `Cc1cccc([C@@H](CO)NC(=O)c2ccc(-c3cc(-c4cnnn4C)cnc3N)cc2F)c1` [Example 306, (S)-4-(2-amino-5-(1-methyl-1H-1,2,3-triazol-5-yl)pyridin-3-yl)-2-fluoro-N-(2-hydroxy-1-(m-tolyl)ethyl) benzamide], half-maximal inhibition (IC50) required 0.378 nM.

`Cn1cc(-c2cnc(N)c(-c3ccc(C(=O)NC(CN)c4cccc(Cl)c4)c(F)c3)c2)cn1` (centres unmarked) [Example 307, N-(2-amino-1-(3-chlorophenyl)ethyl)-4-(2-amino-5-(1-methyl-1H-pyrazol-4-yl)pyridin-3-yl)-2-fluorobenzamide] returned a 50% inhibitory concentration (IC50) of 0.2 nM.

Compound `CS(=O)(=O)c1cc(F)cc(CNC(=O)c2ccc(-c3nc(C4CCOCC4)cnc3N)cc2F)c1` [Example 310, 4-(3-amino-6-(tetrahydro-2H-pyran-4-yl)pyrazin-2-yl)-2-fluoro-N-(3-fluoro-5-(methylsulfonyl)benzyl)benzamide] yielded an IC50 of 0.242 nM. The IC50 values of the last two compounds are within 1.5-fold of each other.

With `CCn1cc(-c2cnc(N)c(-c3ccc(C(=O)N[C@H](C)c4cc(F)cc(S(C)(=O)=O)c4)c(F)c3)c2)cn1` [Example 313, (R)-4-(2-amino-5-(1-ethyl-1H-pyrazol-4-yl)pyridin-3-yl)-2-fluoro-N-(1-(3-fluoro-5-(methylsulfonyl)phenyl)ethyl) benzamide], the half-maximal inhibitory concentration (IC50) was 0.617 nM.

`CCn1cc(-c2cnc(N)c(-c3ccc(C(=O)N[C@H](CO)c4ccccc4)c(F)c3)c2)cn1` [Example 314, (S)-4-(2-amino-5-(1-ethyl-1H-pyrazol-4-yl)pyridin-3-yl)-2-fluoro-N-(2-hydroxy-1-phenylethyl) benzamide] came in with an IC50 of 1.48 nM.

`Nc1ncc(C2CNC(=O)C2)cc1-c1ccc(C(=O)NCc2ccccc2)c(F)c1` (centres unmarked) [Example 316, 4-(2-amino-5-(5-oxopyrrolidin-3-yl)pyridin-3-yl)-N-benzyl-2-fluorobenzamide] registered an IC50 of 330 nM. This IC50 is about 220-fold higher than that of the compound before.

`Cc1ccnc(CNC(=O)c2ccc(-c3cc(C4CCOCC4)cnc3N)cc2F)n1` [Example 317, 4-(2-amino-5-(tetrahydro-2H-pyran-4-yl)pyridin-3-yl)-2-fluoro-N-((4-methylpyrimidin-2-yl)methyl) benzamde] returned an IC50 of 1340 nM.

`NC(=O)c1ccc(-c2nc(C3CCOCC3)cnc2N)cc1F` [Example 319, 4-(3-amino-6-(tetrahydro-2H-pyran-4-yl)pyrazin-2-yl)-2-fluorobenzamide] showed a 50% inhibitory concentration (IC50) of 151 nM.

On to `CNC(=O)c1ccc(-c2nc(C3CCOCC3)cnc2N)cc1F` [Example 320, 4-(3-amino-6-(tetrahydro-2H-pyran-4-yl)pyrazin-2-yl)-2-fluoro-N-methylbenzamide], for which the IC50 was found to be 354 nM.

With `Nc1ncc(C2CCOCC2)nc1-c1ccc(C(=O)N2CCOC[C@@H]2c2ccccc2)cc1` [Example 322, (S)-(4-(3-amino-6-(tetrahydro-2H-pyran-4-yl)pyrazin-2-yl)phenyl)(3-phenylmorpholino) methanone], the concentration for half-maximal inhibition (IC50) came out at 91.2 nM.

In turn, `CS(=O)(=O)c1cccc(CNC(=O)c2ccc(-c3nc(C4CCOCC4)cnc3N)cc2)c1` [Example 323, 4-(3-amino-6-(tetrahydro-2H-pyran-4-yl)pyrazin-2-yl)-N-(3-(methylsulfonyl)benzyl)benzamide] registered an IC50 of 3.29 nM.

On to `NC[C@@H](NC(=O)c1ccc(-c2nc(C3CCOCC3)cnc2N)cc1F)c1ccccc1` [Example 326, (S)-N-(2-amino-1-phenylethyl)-4-(3-amino-6-(tetrahydro-2H-pyran-4-yl)pyrazin-2-yl)-2-fluorobenzamide], for which 0.253 nM corresponded to half-maximal inhibition (IC50).

Regarding `Nc1ncc(C2CCOCC2)nc1-c1ccc(C(=O)N[C@H](CF)c2ccccc2)cc1` [Example 327, (S)-4-(3-amino-6-(tetrahydro-2H-pyran-4-yl)pyrazin-2-yl)-N-(2-fluoro-1-phenylethyl) benzamide], the concentration for half-maximal inhibition (IC50) stood at 54.2 nM. Against the preceding compound, the IC50 is about 210-fold higher.

The compound `Nc1ncc(C2CCC3(CC2)OCCO3)nc1-c1ccc(C(=O)NCc2ccccc2)c(F)c1` [Example 413, 4-(3-amino-6-(1,4-dioxaspiro[4.5]decan-8-yl)pyrazin-2-yl)-N-benzyl-2-fluorobenzamide] registered a concentration for half-maximal inhibition (IC50) of 204 nM. This IC50 is about 3.8-fold higher than that of the compound before.

The compound `C[C@@H](NC(=O)c1ccc(-c2nc([C@H]3CC[C@H](O)CC3)cnc2N)cc1F)c1cccc(Cl)c1` [Example 415, 4-(3-amino-6-((1r,4R)-4-hydroxy-cyclohexyl)pyrazin-2-yl)-N-((R)-1-(3-chlorophenyl)ethyl)-2-fluorobenzamide] showed an IC50 of 1.68 nM.

Values taken from patent US9242996B2 (Novartis AG, priority 2013, dated 2016).
